Assay results published in BindingDB's records for doi:10.1021/ml300405d (Therachem Research Medilab (India), 2013).
pIC50: −log10 of the molar value.

Target: Tyrosine-protein kinase SYK (Homo sapiens) (UniProt P43405)
Test: Inhibition of human Gst-tagged Syk expressed in sf9 cells

Structure (SMILES)	pIC50
COc1ccc(Nc2nc(N3CCC(C(=O)Nc4ccc(C(=O)O)cc4)C3)nc3scnc23)nc1OC (stereo not drawn)	5.21
CNC(=O)c1ccc(NC(=O)c2cccc(-c3nc(Nc4ccc(OC)c(OC)c4)c4ncsc4n3)c2)cc1	7.15
COc1ccc(Nc2nc(N3CCCC(C(=O)Nc4ccc(C(=O)O)c(O)c4)C3)nc3scnc23)cc1OC (stereo not drawn)	7.15
